In patent US9585891B2 (MERCK PATENT GMBH, priority 2012, dated 2017) one finds IC50 data, which are given here for 31 compounds.

pIC50: −log10 of the molar value. A value given as a limit tells only on which side of the number the result lay.

The experiment concerns the target T1, Human recombinant Vanin-1 (VNN1) (Homo sapiens, UniProt O95497).
T1 construct: purchased Sino Biological Inc. 11662-H08H
T1 sequence (O95497 22-491): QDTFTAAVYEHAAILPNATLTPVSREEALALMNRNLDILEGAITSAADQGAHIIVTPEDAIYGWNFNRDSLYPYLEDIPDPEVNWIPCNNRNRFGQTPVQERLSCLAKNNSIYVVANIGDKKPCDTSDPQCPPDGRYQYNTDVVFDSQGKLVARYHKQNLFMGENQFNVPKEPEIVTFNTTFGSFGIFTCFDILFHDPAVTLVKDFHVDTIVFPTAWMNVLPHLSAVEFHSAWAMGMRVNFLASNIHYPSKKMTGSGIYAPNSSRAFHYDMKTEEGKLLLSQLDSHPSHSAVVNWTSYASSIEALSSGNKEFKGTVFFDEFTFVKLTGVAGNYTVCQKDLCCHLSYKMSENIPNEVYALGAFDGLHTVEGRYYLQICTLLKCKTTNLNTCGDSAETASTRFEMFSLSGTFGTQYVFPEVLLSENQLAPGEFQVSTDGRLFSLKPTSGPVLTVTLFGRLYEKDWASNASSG
In words: Vanin-1 enzymatic assay (fluorescence intensity, Pantothenate-AMC substrate). It counts as biochemical. The conditions noted are these: purified recombinant human Vanin-1 0.5 nM; 30 min preincubation at 30° C.; Pantothenate-AMC 30 μM, 60 min. As for the experimental part: Human recombinant Vanin-1 (VNN1) was purchased from Sino Biological Inc. (Catalog Number: 11662-H08H).
Measurement of VNN1 inhibition is performed in 384-well format based on fluorescence intensity assay. Purified recombinant human Vanin-1 (0.5 nM) and threefold serial diluted compounds in 3% DMSO (range of concentrations from 30 μM to 1.524 nM) or controls (3.0% DMSO) are incubated for 30 minutes at 30° C. with gentle agitation in assay buffer containing 100 mM potassium Phosphate Buffer (KPi), pH 7.5, 0.001% Bovine Serum Albumin (BSA), 0.5 mM dithiothreitol (DTT) and 0.0025% Brij-35. The reaction is initiated by the addition of the fluorogenic substrate, Pantothenate-AMC, at a concentration of 30 μM. After 60 minutes of incubation at 30° C. with gentle agitation, fluorescence intensity is measured at λex=350 nm and λem=450 nm with a fluorescence reader (BMG PHERAstar reader or equivalent).
For the compound `CC(=O)CCNC(=O)[C@H](O)C(C)(C)CO` [Example 1, (R)-2,4-Dihydroxy-3,3-dimethyl-N-(3-oxo-butyl)-butyramide], the pIC50 was 5.27.
`CCC(=O)CCNC(=O)[C@H](O)C(C)(C)CO` [Example 2, (R)-2,4-Dihydroxy-3,3-dimethyl-N-(3-oxo-pentyl)-butyramide]: the negative-log IC50 (pIC50) is 4.69.
In the case of `CC(C)(CO)[C@@H](O)C(=O)NCCC(=O)C(=O)NCCc1ccccc1` [Example 12, (R)-2,4-Dihydroxy-3,3-dimethyl-N-(3-oxo-3-phenethylcarbamoyl-propyl)-butyramide], the pIC50 is 7.05.
Consider `CC(C)(CO)[C@H](O)C(=O)NCCC(=O)C(=O)NCc1ccccc1` [Example 13, (S)—N-(3-Benzylcarbamoyl-3-oxo-propyl)-2,4-dihydroxy-3,3-dimethyl-butyramide], for which the negative-log IC50 (pIC50) was 6.34.
Turning to `CC(C)(CO)[C@@H](O)C(=O)NCCC(=O)C(=O)Nc1ccccc1` [Example 16, (R)-2,4-Dihydroxy-3,3-dimethyl-N-(3-oxo-3-phenylcarbamoyl-propyl)-butyramide], the pIC50 is 5.08.
In the case of `CC(C)(CO)[C@@H](O)C(=O)NCCC(=O)C(=O)NC1CCCCC1` [Example 18, (R)—N-(3-Cyclohexylcarbamoyl-3-oxo-propyl)-2,4-dihydroxy-3,3-dimethyl butyramide], the pIC50 was 5.47.
`CC(NC(=O)C(=O)CCNC(=O)[C@H](O)C(C)(C)CO)c1ccccc1` (stereo partly shown) [Example 20]: the negative-log IC50 (pIC50) was 5.52.
With `CC(C)(CO)[C@@H](O)C(=O)NCCC(=O)C(=O)NC(c1ccccc1)c1ccccc1` [Example 21, (R)—N-[3-(Benzhythyl-carbamoyl)-3-oxo-propyl]-2,4-dihydroxy-3,3-dimethyl-butyramide], the pIC50 is 4.94.
With `COC(=O)CNC(=O)C(=O)CCNC(=O)[C@H](O)C(C)(C)CO` [Example 25, [4-((R)-2,4-Dihydroxy-3,3-dimethyl-butyrylamino)-2-oxo-butyrylamino]-acetic acid methyl ester] the figure was 5.63; with `CN(Cc1ccccc1)C(=O)C(=O)CCNC(=O)[C@H](O)C(C)(C)CO` [Example 27], 5.01; with `CC(C)(CO)[C@@H](O)C(=O)NCCC(=O)C(=O)NCC1CCCO1` (stereo partly drawn) [Example 29, (R)-2,4-Dihydroxy-3,3-dimethyl-N-(3-oxo-3-[(tetrahydro-furan-2-ylmethyl)-carbamoyl]-propyl)-butyramide], 6.15.
For `CC(C)(CO)[C@@H](O)C(=O)NCCC(=O)C(=O)NCCc1ccc(S(C)(=O)=O)cc1` [Example 30, (R)-2,4-Dihydroxy-N-{3-[2-(4-methanesulfonyl-phenyl)-ethylcarbamoyl]-3-oxo-propyl}-3,3-dimethyl-butyramide], the pIC50 is 7.52.
With `CC(C)(CO)[C@@H](O)C(=O)NCCC(=O)C(=O)NCC1CCN(S(=O)(=O)c2ccccc2)CC1` [Example 34, (R)—N-(3-[(1-Benzenesulfonyl-piperidin-4-ylmethyl)-carbamoyl]-3-oxo-propyl)-2,4-dihydroxy-3,3-dimethyl-butyramide] the figure was 7.70; with `CC(C)(CO)[C@@H](O)C(=O)NCCC(=O)C(=O)NCCCc1ccc(S(=O)(=O)N2CCCCC2)cc1` [Example 35, (R)-2,4-Dihydroxy-3,3-dimethyl-N-(3-oxo-3-{3-[4-(piperidine-1-sulfonyl)-phenyl]-propylcarbamoyl}-propyl)-butyramide], 7.15; with `CC(C)(CO)[C@@H](O)C(=O)NCCC(=O)C(=O)NCc1cccc(S(=O)(=O)N2CCCCC2)c1` [Example 36, (R)-2,4-Dihydroxy-3,3-dimethyl-N-{3-oxo-3-[3-(piperidine-1-sulfonyl)-benzylcarbamoyl}-propyl)-butyramide], 6.77.
As for `CC(C)(CO)[C@@H](O)C(=O)NCCC(=O)C(=O)NCc1ccc(Oc2ccncc2)cc1` [Example 37, (R)-2,4-Dihydroxy-3,3-dimethyl-N-{3-oxo-3-[4-(pyridin-4-yloxy)-benzylcarbamoyl]-propyl}-butyramide], the pIC50 is 8.00.
Consider `CC(C)(CO)[C@@H](O)C(=O)NCCC(=O)C(=O)NCC1CCN(S(=O)(=O)c2ccc(-c3ccccc3)cc2)CC1` [Example 38, (R)—N-(3-{[1-(Biphenyl-4-sulfonyl)-piperidin-4-ylmethyl]-carbamoyl}-3-oxo-propyl)-2,4-dihydroxy-3,3-dimethyl-butyramide], for which the pIC50 is above 8.00.
With `CC(C)(CO)[C@@H](O)C(=O)NCCC(=O)C(=O)NCCCN1CCOCC1=O` [Example 40, (R)-2,4-Dihydroxy-3,3-dimethyl-N-{3-oxo-3-[3-(3-oxo-morpholin-4-yl)-propylcarbamoyl}-propyl)butyramide] the figure was 6.40.
On to `CC(C)(CO)[C@@H](O)C(=O)NCCC(=O)C(=O)NCc1ccc(N2CCOCC2)cc1` [Example 41, (R)-2,4-Dihydroxy-3,3-dimethyl-N-[3-(4-morpholin-4-yl-benzylcarbamoyl)-3-oxo-propyl]-butyramide], for which the pIC50 is 8.00.
As for `CC(C)(CO)[C@@H](O)C(=O)NCCC(=O)C(=O)NCCOc1ccccc1` [Example 42, (R)-2,4-Dihydroxy-3,3-dimethyl-N-[3-oxo-3-(2-phenoxy-ethylcarbamoyl)-propyl]-butyramide], the pIC50 is 6.47.
Regarding `CC(C)(CO)[C@@H](O)C(=O)NCCC(=O)C(=O)N1CCC(Nc2cccc(S(=O)(=O)C(F)(F)F)c2)CC1` [Example 43, (R)—N-{3,4-Dioxo-4-[4-(3-trifluoromethanesulfonyl-phenylamino)-piperidin-1-yl]-butyl}-2,4-dihydroxy-3,3-dimethyl-butyramide], the pIC50 was 4.90.
Regarding `CC(C)(CO)[C@@H](O)C(=O)NCCC(=O)C(=O)NCc1ccc(OCCN2CCOCC2)cc1` [Example 44, (R)-2,4-Dihydroxy-3,3-dimethyl-N-(3-[4-(2-morpholin-4-yl-ethoxy)-benzylcarbamoyl]-3-oxo-propyl)-butyramide], the pIC50 was 7.30.
With `CCOC(=O)c1ccc(CNC(=O)C(=O)CCNC(=O)[C@H](O)C(C)(C)CO)cc1` [Example 45, 4-{[4-((R)-2,4-Dihydroxy-3,3-dimethyl-butyrylamino)-2-oxo-butyrylamino]-methyl}-benzoic acid ethyl ester] the figure was 7.70; with `CC(C)(CO)[C@@H](O)C(=O)NCCC(=O)C(=O)NCC1CCN(S(=O)(=O)c2ccc(N3CCCC3=O)cc2)CC1` [Example 46, (R)-2,4-Dihydroxy-3,3-dimethyl-N-[3-oxo-3-({1-[4-(2-oxo-pyrrolidin-1-yl)-benzenesulfonyl]-piperidin-4-ylmethyl}-carbamoyl)-propyl]-butyramide], above 8.00.
With `CC(C)(CO)[C@@H](O)C(=O)NCCC(=O)C(=O)NCC1CCN(S(C)(=O)=O)CC1` [Example 47, (R)-2,4-Dihydroxy-N-(3-[(1-methanesulfonyl-piperidin-4-ylmethyl)-carbamoyl]-3-oxo-propyl)-3,3-dimethyl-butyramide] the figure was 7.70; with `CC(=O)N1CCC(CNC(=O)C(=O)CCNC(=O)[C@H](O)C(C)(C)CO)CC1` [Example 48, (R)—N-(3-[(1-Acetyl-piperidin-4-ylmethyl)-carbamoyl]-3-oxo-propyl)-2,4-dihydroxy-3,3-dimethyl-butyramide], 6.96.
In the case of `CC(C)(CO)[C@@H](O)C(=O)NCCC(=O)C(=O)N1CCOCC1` [Example 49, (R)-2,4-Dihydroxy-3,3-dimethyl-N-(4-morpholin-4-yl-3,4-dioxo-butyl)-butyramide], the pIC50 is 4.64.
In the case of `COCCOc1ccc(CNC(=O)C(=O)CCNC(=O)[C@H](O)C(C)(C)CO)cc1` [Example 50, (R)-2,4-Dihydroxy-N-(3-[4-(2-methoxy-ethoxy)-benzylcarbamoyl]-3-oxo-propyl)-3,3-dimethyl-butyramide], the negative-log IC50 (pIC50) is 7.52.
For the compound `CC(C)(CO)[C@@H](O)C(=O)NCCC(=O)C(=O)NCC1CCN(S(=O)(=O)c2cccc(F)c2)CC1` [Example 51, (R)—N-(3-{[1-(3-Fluoro-benzenesulfonyl)-piperidin-4-ylmethyl]-carbamoyl}-3-oxo-propyl)-2,4-dihydroxy-3,3-dimethyl-butyramide], the negative logarithm of the IC50 (pIC50) is 7.70.
With `CC(C)(CO)[C@@H](O)C(=O)NCCC(=O)C(=O)NCC1CCN(S(=O)(=O)Cc2cccc(F)c2)CC1` [Example 52, (R)—N-(3-{[1-(3-Fluoro-phenylmethanesulfonyl)-piperidin-4-ylmethyl]-carbamoyl}-3-oxo-propyl)-2,4-dihydroxy-3,3-dimethyl-butyramide], the pIC50 is 7.30.
As for `CC(C)(CO)[C@@H](O)C(=O)NCCC(=O)C(=O)NCc1ccc(-c2ccc(S(C)(=O)=O)cc2)cc1` [Example 53, (R)-2,4-Dihydroxy-N-{3-[(4′-methanesulfonyl-biphenyl-4-ylmethyl)-carbamoyl]-3-oxo-propyl}-3,3-dimethyl-butyramide], the pIC50 is 8.00.
